Data on 1 compound can be found in patent EP3389676B1, “DOSAGE REGIMEN OF SODIUM SELENITE IN THE TREATMENT OF CANCER” (Pharma Nord ApS, priority 2015, dated 2017).

Molecules are shown by their SMILES.

For data set [1], the system named is patients with advanced cancer diseases. The following applies: SECAR clinical phase I study; intermittent daily infusions (20-40 minutes); Brodin et al. 2014; cited from earlier work.
The nature of data set [2]: Pharmacokinetics: plasma selenium by ICP-MS, one compartment infusion model. The class given is in vivo, human. The protocol:
Blood samples are collected about 5 minutes prior and post infusion at all treatments. The plasma fractions are obtained by centrifugation and stored at -70°C until analyses.
Pharmacokinetic analyses are performed by using the Win-Nonlin program Standard Edition version 1.5 (Pharsight Corporation, Mountain View, CA, USA).
The one compartment infusion model was used for the evaluation of the pharmacokinetics. The reciprocal concentrations were used as weights for the iterative procedure. […] AUC values during the entire treatment period (i.e. from day 0 to day 35) were evaluated by applying the trapezoidal rule to estimated time-concentration curves.

A further data set has as its system cancer patients. To be noted: cumulative intravenous administration of 100 mg; reports about a century ago; cited from earlier work.
The test system of data set [3] is patients with advanced cancer diseases. As to the kind of experiment: Phase I dose-escalation trial of intravenously administered sodium selenite: toxicity and MTD. The class given is in vivo, human. The protocol:
In a previous study, the present inventors carried out the first in-human phase-I trial to determine the MTD of intravenously administered sodium selenite in patients with advanced cancer diseases.
This phase I trial is an open-label dose-escalation study of i.v. administered sodium selenite. Each cohort consists of three patients who are treated with dosages regimens according to a predefined schedule having the two-step dosage regimen.
Serious toxicity in primarily the brain and the heart has been recorded in patients treated with high doses of selenite.
With a few exceptions, all patients visited the clinic before and after infusion, at least once a week during the treatment, before each chemotherapy treatment and at the end of treatment. At these occasions, the medical history is recorded, and a physical examination is performed. Patients undergo CT or PET-CT examination one week before the start, three days after the completion of the selenite treatment and after the final chemotherapy treatment. Routine blood parameters are analysed before, during and after the treatment. The ECG is examined before the start and after both the selenite and chemotherapy treatments.

`O=[Se](O)O` [sodium selenite]: in data set [1], the maximum tolerated dose entry is “approximately 10.2 mg/m^2”. Moreover, in data set [2] (high doses of repeated selenite administration), the “plasma selenite concentration at the end of the treatment” value was “returned to the baseline levels”. Besides, the “plasma selenite concentration with respect to the total dose” value in data set [2] (in vivo) is listed as “linear increase”. The toxic effects entry in the data set with cancer patients is listed as “no incidence of toxic effects”. Besides, the “Toxicity registered from similar dose, during similar time but as intermittent infusion” value in data set [3] (3.0 mg/m^2, cohort 2) is recorded as 3.0 mg/m^2, cohort 2, no certain toxicity,; in data set [3] (4.5 mg/m^2, cohort 3), “very mild toxicity”; in data set [3] (6.0 mg/m^2, cohort 4) it was 6.0 mg/m^2, cohort 4, mild toxicity; in data set [3] (9.0 mg/m2, cohort 5) it was “gr 1 toxicity”; in data set [3] (20.4 mg/m^2, cohort 7), “grade 2 toxicity”; in data set [3] (38.4 mg/m^2, cohort 10) it was 38.4 mg/m^2, cohort 10, gr 3 & gr 4 toxicity. The “duration of dose-limiting toxicity (DLT)” value in data set [3] (DLT appeared some hours after selenite infusion, without persisting toxicity or sequelae) lay within 6 to 8 h. Further, in data set [3] (at MTD dose (10.2 mg/m^2) and below), the bone marrow toxicity result is recorded as “no bone marrow toxicity was evident”. Moreover, the “MTD for repeated infusions” value in data set [3] (cohort 8, total dose given as intermittent infusion over similar time) is listed as 30.6 mg/m2. The “toxicity mainly observed as” value in data set [3] (could be dose-limiting in spite of antiemetic treatment) is “nausea, vomiting and fatigue”. For the same compound, the “most significant adverse effects” value in data set [3] (especially at high dose levels such as beyond MTD) was “heart toxicity with signs of ischemia, confusion and unconsciousness”. The MTD in data set [3] (intravenously administered, previous first in-human phase-I trial, well tolerated at doses up to this value) came out at 10.2 mg/m^2.
